Source: ChEMBL document CHEMBL1201862, “PubChem BioAssay data set” (2004)
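Results reflect a 48-hour exposure of cells in 96-well plates to compound at five concentrations. GI50 = concentration required for 50% inhibition of growth.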 Activity calls are given as the source filed them. Rule as the data show it: active = GI50 up to about 1.1 µM and inactive = higher.

What was measured:
Assay in all cases: NCI-60 cell line screen, 48 h
CCRF-CEM = tested on: CCRF-CEM
EKVX = tested on: EKVX
Hs-578T = tested on: Hs-578T
SW-620 = tested on: SW-620
HOP-92 = tested on: HOP-92
SK-MEL-28 = tested on: SK-MEL-28
M14 = tested on: M14
TK-10 = tested on: TK-10
OVCAR-3 = tested on: OVCAR-3
MDA-MB-231 = tested on: MDA-MB-231
DU-145 = tested on: DU-145
CAKI-1 = tested on: CAKI-1
HL-60 = tested on: HL-60
NCI/ADR-RES = tested on: NCI/ADR-RES
SK-MEL-2 = tested on: SK-MEL-2
SNB-75 = tested on: SNB-75
UO-31 = tested on: UO-31
OVCAR-4 = tested on: OVCAR-4
HCT-116 = tested on: HCT-116
SR = tested on: SR
786-0 = tested on: 786-0
NCI-H23 = tested on: NCI-H23
HOP-62 = tested on: HOP-62
RXF 393 = tested on: RXF 393
MCF7 = tested on: MCF7
UACC-62 = tested on: UACC-62
LOX IMVI = tested on: LOX IMVI
NCI-H226 = tested on: NCI-H226
MDA-N = tested on: MDA-N
HCT-15 = tested on: HCT-15
NCI-H460 = tested on: NCI-H460
T47D = tested on: T47D
COLO 205 = tested on: COLO 205
A498 = tested on: A498
BT-549 = tested on: BT-549
K562 = tested on: K562
U-251 = tested on: U-251
NCI-H522 = tested on: NCI-H522
SN12C = tested on: SN12C
MDA-MB-435 = tested on: MDA-MB-435
UACC-257 = tested on: UACC-257
SK-OV-3 = tested on: SK-OV-3
IGROV-1 = tested on: IGROV-1
HT-29 = tested on: HT-29
SF-539 = tested on: SF-539
ACHN = tested on: ACHN
PC-3 = tested on: PC-3
SF-295 = tested on: SF-295
KM12 = tested on: KM12
OVCAR-8 = tested on: OVCAR-8
MOLT-4 = tested on: MOLT-4
A549 = tested on: A549
SF-268 = tested on: SF-268
RPMI-8226 = tested on: RPMI-8226
SK-MEL-5 = tested on: SK-MEL-5
OVCAR-5 = tested on: OVCAR-5
Malme-3M = tested on: Malme-3M
SNB-19 = tested on: SNB-19

CC[N+](C)(CC)Cc1ccccc1[N+](=O)[O-]
GI50 (CCRF-CEM): > 100 µM (inactive)
GI50 (EKVX): 32.3 µM (inactive)
GI50 (Hs-578T): > 100 µM (inactive)
GI50 (SW-620): 87.7 µM (inactive)
GI50 (HOP-92): > 100 µM (inactive)
GI50 (SK-MEL-28): > 100 µM (inactive)
GI50 (M14): > 100 µM (inactive)
GI50 (TK-10): > 100 µM (inactive)
GI50 (OVCAR-3): 26.9 µM (inactive)
GI50 (MDA-MB-231): 72.8 µM (inactive)
GI50 (DU-145): > 100 µM (inactive)
GI50 (CAKI-1): > 100 µM (inactive)
GI50 (HL-60): > 100 µM (inactive)
GI50 (NCI/ADR-RES): > 100 µM (inactive)
GI50 (SK-MEL-2): > 100 µM (inactive)
GI50 (SNB-75): > 100 µM (inactive)
GI50 (UO-31): > 100 µM (inactive)
GI50 (OVCAR-4): > 100 µM (inactive)
GI50 (HCT-116): > 100 µM (inactive)
GI50 (SR): > 100 µM (inactive)
GI50 (786-0): > 100 µM (inactive)
GI50 (NCI-H23): > 100 µM (inactive)
GI50 (HOP-62): 48.4 µM (inactive)
GI50 (RXF 393): > 100 µM (inactive)
GI50 (MCF7): > 100 µM (inactive)
GI50 (UACC-62): > 100 µM (inactive)
GI50 (LOX IMVI): > 100 µM (inactive)
GI50 (NCI-H226): 64.7 µM (inactive)
GI50 (MDA-N): > 100 µM (inactive)
GI50 (HCT-15): > 100 µM
GI50 (NCI-H460): > 100 µM (inactive)
GI50 (T47D): > 100 µM (inactive)
GI50 (COLO 205): 46 µM (inactive)
GI50 (A498): 41.2 µM (inactive)
GI50 (BT-549): 36 µM (inactive)
GI50 (K562): > 100 µM (inactive)
GI50 (U-251): 53.7 µM (inactive)
GI50 (NCI-H522): > 100 µM (inactive)
GI50 (SN12C): > 100 µM (inactive)
GI50 (MDA-MB-435): > 100 µM (inactive)
GI50 (UACC-257): > 100 µM (inactive)
GI50 (SK-OV-3): > 100 µM (inactive)
GI50 (IGROV-1): > 100 µM (inactive)
GI50 (HT-29): 36.1 µM (inactive)
GI50 (SF-539): > 100 µM (inactive)
GI50 (ACHN): > 100 µM (inactive)
GI50 (PC-3): 44.8 µM (inactive)
GI50 (SF-295): > 100 µM (inactive)
GI50 (KM12): > 100 µM (inactive)
GI50 (OVCAR-8): 39.8 µM (inactive)
GI50 (MOLT-4): > 100 µM (inactive)
GI50 (A549): > 100 µM (inactive)
GI50 (SF-268): 59.4 µM (inactive)
GI50 (RPMI-8226): > 100 µM (inactive)
GI50 (SK-MEL-5): > 100 µM (inactive)
GI50 (OVCAR-5): > 100 µM (inactive)
GI50 (Malme-3M): > 100 µM (inactive)

CC(c1ccccc1)n1cncc1C(=O)NN1CCN(C)CC1 (configuration not stated)
GI50 (CCRF-CEM): > 10 µM (inactive)
GI50 (EKVX): > 10 µM (inactive)
GI50 (Hs-578T): > 10 µM (inactive)
GI50 (SNB-19): > 10 µM (inactive)
GI50 (SW-620): > 10 µM (inactive)
GI50 (SK-MEL-28): > 10 µM (inactive)
GI50 (M14): > 10 µM (inactive)
GI50 (TK-10): > 10 µM (inactive)
GI50 (OVCAR-3): > 10 µM (inactive)
GI50 (MDA-MB-231): > 10 µM (inactive)
GI50 (DU-145): > 10 µM (inactive)
GI50 (CAKI-1): > 10 µM (inactive)
GI50 (HL-60): > 10 µM (inactive)
GI50 (NCI/ADR-RES): > 10 µM (inactive)
GI50 (SK-MEL-2): > 10 µM (inactive)
GI50 (OVCAR-4): > 10 µM (inactive)
GI50 (HCT-116): > 10 µM (inactive)
GI50 (SR): > 10 µM (inactive)
GI50 (786-0): > 10 µM (inactive)
GI50 (NCI-H23): > 10 µM (inactive)
GI50 (HOP-62): > 10 µM (inactive)
GI50 (RXF 393): > 10 µM (inactive)
GI50 (MCF7): > 10 µM (inactive)
GI50 (UACC-62): > 10 µM (inactive)
GI50 (LOX IMVI): > 10 µM (inactive)
GI50 (NCI-H226): 3.81 µM (inactive)
GI50 (MDA-N): > 10 µM (inactive)
GI50 (HCT-15): > 10 µM
GI50 (NCI-H460): > 10 µM (inactive)
GI50 (T47D): > 10 µM (inactive)
GI50 (COLO 205): > 10 µM (inactive)
GI50 (A498): > 10 µM (inactive)
GI50 (BT-549): > 10 µM (inactive)
GI50 (K562): > 10 µM (inactive)
GI50 (U-251): > 10 µM (inactive)
GI50 (NCI-H522): > 10 µM (inactive)
GI50 (SN12C): > 10 µM (inactive)
GI50 (MDA-MB-435): > 10 µM (inactive)
GI50 (UACC-257): > 10 µM (inactive)
GI50 (SK-OV-3): > 10 µM (inactive)
GI50 (IGROV-1): > 10 µM (inactive)
GI50 (HT-29): > 10 µM (inactive)
GI50 (SF-539): > 10 µM (inactive)
GI50 (ACHN): > 10 µM (inactive)
GI50 (PC-3): > 10 µM (inactive)
GI50 (SF-295): > 10 µM (inactive)
GI50 (KM12): > 10 µM (inactive)
GI50 (OVCAR-8): > 10 µM (inactive)
GI50 (MOLT-4): > 10 µM (inactive)
GI50 (A549): > 10 µM (inactive)
GI50 (SF-268): > 10 µM (inactive)
GI50 (RPMI-8226): > 10 µM (inactive)
GI50 (SK-MEL-5): > 10 µM (inactive)
GI50 (OVCAR-5): > 10 µM (inactive)
GI50 (Malme-3M): > 10 µM (inactive)
